According to patent publication US11001562B2, “Near-infrared fluorescent nerve contrast agents and methods of use thereof” (Beth Israel Deaconess Medical Center, priority 2013, dated 2021):
“Also recorded” adds a separate entry of the source.

Tests used:
[1] = Optical property measurements (absorbance and fluorescence spectra); assay type: physicochemical; conditions: 100% FBS with 50 mM HEPES, pH 7.4, 37° C.
Method: Absorbance and fluorescence spectra were obtained at a concentration of […] in 100% FBS supplemented with 50 mM HEPES, pH 7.4. B) Optical properties of Oxazine 4 were measured in PBS (pH 7.4), FBS (pH 7.4), MeOH, and DMSO.
Oxazine derivatives were obtained from Fisher Scientific Inc. (Pittsburgh, Pa.) or Sigma-Aldrich (Saint Louis, Mo.), and BMB was synthesized as described previously (25). Optical measurements were performed at 37° C. in phosphate-buffered saline (PBS), pH 7.4 or 100% fetal bovine serum (FBS) buffered with 50 mM HEPES, pH 7.4. Absorbance and fluorescence emission spectra were measured using fiber optic HR2000 absorbance (200-1100 nm) and USB2000FL fluorescence (350-1000 nm) spectrometers (Ocean Optics, Dunedin, Fla.). NIR excitation was provided by a 532 nm green laser pointer (Opcom Inc., Xiamen, China) set to 5 mW and coupled through a […] core diameter, NA 0.22 fiber (Fiberguide Industries, Stirling, N.J.). In silico calculation of the partition coefficient (log D at pH 7.4) was calculated using Marvin and J Chem calculator plugins (ChemAxon, Budapest, Hungary). Chemical similarities were calculated by Instant J Chem 6.04 using “Chemical Hashed Fingerprint” with the Normalized Euclidean dissimilarity screening configuration (ChemAxon).
All optical measurements were performed at 37° C. in phosphate-buffered saline (PBS), pH 7.4, 100% fetal bovine serum (FBS) buffered with 50 mM HEPES, pH 7.4, methanol (MeOH), or dimethyl sulfoxide (DMSO). Absorbance and fluorescence emission spectra of the series of NIR fluorophores were measured using fiber optic HR2000 absorbance (200-1100 nm) and USB2000FL fluorescence (350-1000 nm) spectrometers (Ocean Optics, Dunedin, Fla.). Excitation light was provided by a 532 nm green laser pointer (Opcom Inc., Xiamen, China) set to 5 mW and coupled through a 300 μm core diameter, NA 0.22 fiber (Fiberguide Industries, Stirling, N.J.). In silico calculation of the partition coefficient (log D at pH 7.4) was calculated using Marvin and J Chem calculator plugins (ChemAxon, Budapest, Hungary).

[2] = tested on: pig sciatic nerve tissue cross sections; assay: Ex vivo nerve-specific fluorophore screening on nerve tissue sections; conditions: for nerve-specific fluorescence signal in cross-sectioned nerve: 20 min incubation; for adipose uptake: both ex vivo and in vivo
Method: Phase contrast image (top) and fluorescence image (bottom) of nerve tissue sections incubated with 100 μM of test fluorophores are shown. Nerve-specific fluorescence intensity was determined using staining of pig sciatic nerve cut in cross section. Nerve tissue sections were incubated in 30% FBS solutions without (negative control, autofluorescence only) and with each fluorophore. As a positive control, previously reported nerve-specific BMB was used. Shown are phase contrast image (top) and fluorescence image (bottom) of nerve tissue sections incubated with 100 μM of each fluorophore. The control autofluorescence images were taken with equivalent exposure time and normalization. Arrowheads indicate fluorescence signals in nerve bundles. Ad=adipose tissue. Scale bars=200 μm. The SBR of each nerve relative to the neighboring adipose tissue was quantified and labeled as—, SBR<1; +, SBR=1−2; and ++, SBR >2.
Sciatic nerves from female Yorkshire pigs were harvested, fixed in 2% paraformaldehyde (PFA), and flash frozen in optimal cutting temperature (OCT) compound using liquid nitrogen. Nerve tissues were cut in cross section using a cryostat at […] thickness onto positively charge glass slides. Tissue sections were washed once with phosphate buffered saline (PBS) for 2 min to remove residual OCT. The tissue was then fixed to the slide with 2% PFA for 15 min, followed by washing with PBS (3×5 min). A formulation was previously developed for intravenous (IV) administration and was used in the current study to incubate the fluorophores with the nerve tissue (25). All fluorophores were mixed from the 100 mM stock solution into the IV formulation at 100 µM and incubated with the washed nerve tissue sections at room temperature for 20 min. Additional IV formulation not containing fluorophore was mixed and used to wash each nerve section twice (5 min per wash) following incubation with the formulated fluorophore. The nerve section was then washed an additional 2 times with PBS (5 min per each), after which coverslips were mounted using Fluoromount-G (Southern Biotech, Birmingham, Ala.).
NIR fluorescence microscopy for ex vivo nerve tissue slides was performed on a Nikon Eclipse TE300 microscope system as previously described (12, 19, 25). The microscope was equipped with a 100 W mercury light source, NIR-compatible optics, and a NIR-compatible 10× Plan Fluor objective lens and a 100× Plan Apo oil immersion objective lens (Nikon, Melville, N.Y.). Images were acquired on an Orca-AG (Hamamatsu, Bridgewater, N.J.). Image acquisition and analysis was performed using IPLab software (Scanalytics, Fairfax, Va.). A custom filter set (Chroma Technology Corporation, Brattleboro, Vt.) composed of a 650±22 nm excitation filter, a 675 nm dichroic mirror, and an 710±25 nm emission filter were used to detect Oxazine derivatives and Rhodamine 800 signals in the nerve tissue slides. For BMB, a mercury light source was passed through a 360±25 nm BP excitation filter, a 400 nm LP beam splitter, and a 550±50 nm emission filter.

[3] = tested on: rat brachial plexus and sciatic nerves; assay: In vivo nerve-specificity screening with FLARE imaging; conditions: for nerve-specific fluorescence signal in vivo: SD rats, 2 mg/kg (1 μmol) iv, 4 h after injection, brachial plexus and sciatic nerve
From the text: The dual-NIR channel FLARE^a imaging system has been described in detail previously (26-28). In this study, a 670 nm excitation was used at a fluence rate of 4 mW/cm^2, with white light (400-650 nm) at 40,000 1×. Color and NIR fluorescence images were acquired simultaneously with custom software at rates up to 15 Hz over a 15 cm diameter field of view. A pseudo-colored lime green was used for NIR fluorescence in the color-NIR merged images. The imaging system was positioned at a distance of 18 inches from the surgical field.
Initial in vivo screening occurred in rats based on our previous study of BMB (Supplementary Methods) (25). For kinetic and dose-response studies, 50-400 nmol (0.8-6.3 mg/kg) of Oxazine 4 was injected intravenously into mice and measurements taken over 24 h. Control images were acquired prior to injecting NIR fluorophores. The fluorescence signal in nervous tissues and signal-to-background ratio (SBR) compared to neighboring muscle (Mu) were obtained over the period of imaging. For the large animal study, the optimal dose found in mice (200-400 nmol per mouse) was used in pigs by scaling to body surface area (29, 30).
Sprague-Dawley (SD) male rats weighing 250-300 g were purchased from Charles River Laboratories (Wilmington, Mass.). BMB, Oxazine 1, Oxazine 4, Oxazine 170, Oxazine 750, and Rhodamine 800 were initially screened to investigate nerve specificity in rats. For the initial screening, we administered a relatively high dose (2 mg/kg; 1 μmol) of each fluorophore intravenously. 4 h after injection, brachial plexus (BP) and sciatic nerve (SN) were imaged using the intraoperative FLARE^a system for in vivo nerve-specific fluorophores screening.

[4] = 100 μM fluorophore, pig sciatic nerve sections
[5] = comparison of structures in discussion

SMILES	Abs (peak absorbance) [1]	Em (peak emission) [1]	λ (extinction coefficient) [1]	nerve-specific fluorescence signal in cross-sectioned nerve [2, 4]	SBR of nerve relative to neighboring adipose tissue [2, 4]	adipose fluorescence signal [2, 4]	nerve-specific fluorescence signal in vivo [3]	adipose signal (discussion summary) [3, 5]	nerve signal (discussion summary) [3, 5]	adipose uptake [2]	uptake in / targeting of nerve ([3]; summary statement related to log D)
CCN(CC)c1ccc2nc3ccc(=[N+](CC)CC)cc-3oc2c1 [Oxazine 1]	655 nm	670 nm	196,000 M^−1cm^−1	did not show any nerve-specific fluorescence signal		adipose-specific fluorescence signal only	weak signal in the vicinity of nerve	high adipose	low nerve signal		
CC/N=c1/cc2oc3cc(NCC)c(C)cc3nc-2c2ccccc12 [Oxazine 170]	625 nm	650 nm	69,000 M^−1cm^−1	weak nerve-specific fluorescence signal			nerve highlighting fluorophores			strong adipose uptake; also recorded: high accumulation in adipose tissue	
CC/N=c1/cc2oc3c4c5c(cc3nc-2c2ccccc12)CCCN5CCC4 [Oxazine 750]	676 nm	684 nm	44,000 M^−1cm^−1	strong fluorescence signal throughout the cross-sectioned nerve						strong adipose uptake	

Further lines, with some results ahead:

Abs (peak absorbance) [1]	Em (peak emission) [1]	λ (extinction coefficient) [1]	SMILES	nerve-specific fluorescence signal in cross-sectioned nerve [2, 4]	SBR of nerve relative to neighboring adipose tissue [2, 4]	adipose fluorescence signal [2, 4]	nerve-specific fluorescence signal in vivo [3]	adipose signal (discussion summary) [3, 5]	nerve signal (discussion summary) [3, 5]	adipose uptake [2]	uptake in / targeting of nerve ([3]; summary statement related to log D)
397 nm	498 nm	52,800 M^−1cm^−1	COc1cc(/C=C/c2ccc(N)cc2)ccc1/C=C/c1ccc(N)cc1 [BMB, reference compound]	relatively high fluorescence signal in the nerve	< 1	even higher than the target signal	nerve highlighting fluorophores				
697 nm	710 nm	68,000 M^−1cm^−1	N#CC1=c2cc3c4c(c2Oc2c1cc1c5c2CCCN5CCC1)CCC[N+]=4CCC3 [Rhodamine 800]	strong fluorescence signal throughout the cross-sectioned nerve							low and low targeting affinity to the nerve
